# Assay results taken from patent publication US20050112573A1, “Method of detecting toxic substance” (priority 2001, published 2005).
# System: yeast genes (level of expressed mRNA)
# Assay: DNA chip analysis of expressed mRNA of yeast genes after 2 h culture with a toxic chemical substance
# Type: cell-based, Saccharomyces cerevisiae S288C
# In short: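 Values are treated-to-control fluorescence ratios from a whole-yeast-genome DNA chip (65° C, over 12 h hybridization) using Cy3/Cy5-labelled cDNA from mRNA. Log-phase S288C cells in YPD at 25° C were exposed 2 h to a toxicant at sublethal, growth-inhibiting concentration.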
substance,measurement,setting,value
Na2As [(1)],The level of expressed mRNA in the presence of chemical substance/,"yeast gene YKL086W, ratio to control without chemical",1.0
same,The level of expressed mRNA in the presence of chemical substance/The level of expressed mRNA in the absence of chemical substance,yeast gene YKL096W,1.4
same,The level of expressed mRNA in the presence of chemical substance/The level of expressed mRNA in the absence of chemical substance,yeast gene YKL139W,0.9
same,The level of expressed mRNA in the presence of chemical substance/,"yeast gene YKL151C, ratio to control without chemical substance, 2 h culture",1.2
same,The level of expressed mRNA in the presence of chemical substance/,"yeast gene YKL153W, ratio to control without chemical substance, 2 h culture",1.1
same,The level of expressed mRNA in the presence of chemical substance/The level of expressed mRNA in the absence of chemical substance,yeast gene YKL165C,0.5
same,The level of expressed mRNA in the presence of chemical substance/The level of expressed mRNA in the absence of chemical substance,yeast gene YKL193C,1.3
same,The level of expressed mRNA in the presence of chemical substance/,"yeast gene YKL195W, ratio to control without chemical substance, 2 h culture",0.8
same,The level of expressed mRNA in the presence of chemical substance/in the absence of chemical substance,yeast gene YKR009C,1.0
same,The level of expressed mRNA in the presence of chemical substance/The level of expressed mRNA in the absence of chemical substance,yeast gene YKR014C,1.1
same,The level of expressed mRNA in the presence of chemical substance/,"yeast gene YKR091W, ratio to control without chemical",1.5
same,The level of expressed mRNA in the presence of chemical substance/,"yeast gene YLR054C, ratio to control without chemical substance, 2 h culture",2.0
same,The level of expressed mRNA in the presence of chemical substance/The level of expressed mRNA in the absence of chemical substance,yeast gene YLR120C,1.2
same,The level of expressed mRNA in the presence of chemical substance/The level of expressed mRNA in the absence of chemical substance,yeast gene YLR136C,1.3
same,The level of expressed mRNA in the presence of chemical substance/,"yeast gene YLR149C, ratio to control without chemical substance, 2 h culture",1.4
same,The level of expressed mRNA in the presence of chemical substance/,"yeast gene YLR152C, ratio to control without chemical substance, 2 h culture",0.7
same,The level of expressed mRNA in the presence of chemical substance/The level of expressed mRNA in the absence of chemical substance,yeast gene YLR178C,1.7
same,The level of expressed mRNA in the presence of chemical substance/,"yeast gene YLR194C, ratio to control without chemical",2.1
same,The level of expressed mRNA in the presence of chemical substance/The level of expressed mRNA in the absence of chemical substance,yeast gene YLR250W,1.5
same,The level of expressed mRNA in the presence of chemical substance/,"yeast gene YLR324W, ratio to control without chemical substance, 2 h culture",0.7
same,The level of expressed mRNA in the presence of chemical substance/The level of expressed mRNA in the absence of chemical substance,yeast gene YLR327C,5.5
same,The level of expressed mRNA in the presence of chemical substance/,"yeast gene YLR350W, ratio to control without chemical substance, 2 h culture",1.2
same,The level of expressed mRNA in the presence of chemical substance/in the absence of chemical substance,yeast gene YLR351C,1.0
same,The level of expressed mRNA in the presence of chemical substance/The level of expressed mRNA in the absence of chemical substance,yeast gene YLR356W,1.0
same,The level of expressed mRNA in the presence of chemical substance/The level of expressed mRNA in the absence of chemical substance,yeast gene YLR362W,1.1
same,The level of expressed mRNA in the presence of chemical substance/in the absence of chemical substance,yeast gene YLR375W,0.9
same,The level of expressed mRNA in the presence of chemical substance/,"yeast gene YLR387C, ratio to control without chemical substance, 2 h culture",0.9
same,The level of expressed mRNA in the presence of chemical substance/The level of expressed mRNA in the absence of chemical substance,yeast gene YLR429W,0.7
same,The level of expressed mRNA in the presence of chemical substance/,"yeast gene YLR460C, ratio to control without chemical substance, 2 h culture",2.1
same,The level of expressed mRNA in the presence of chemical substance/,"yeast gene YML117W, ratio to control without chemical substance, 2 h culture",0.9
same,The level of expressed mRNA in the presence of chemical substance/The level of expressed mRNA in the absence of chemical substance,yeast gene YMR004W,0.9
same,The level of expressed mRNA in the presence of chemical substance/,"yeast gene YMR009W, ratio to control without chemical substance, 2 h culture",2.3
same,The level of expressed mRNA in the presence of chemical substance/,"yeast gene YMR067C, ratio to control without chemical substance, 2 h culture",0.9
same,The level of expressed mRNA in the presence of chemical substance/,"yeast gene YMR090W, ratio to control without chemical substance, 2 h culture",6.9
same,The level of expressed mRNA in the presence of chemical substance/The level of expressed mRNA in the absence of chemical substance,yeast gene YMR094W,1.0
same,The level of expressed mRNA in the presence of chemical substance/,"yeast gene YMR095C, ratio to control without chemical",1.1
same,The level of expressed mRNA in the presence of chemical substance/,"yeast gene YMR097C, ratio to control without chemical substance, 2 h culture",1.5
same,The level of expressed mRNA in the presence of chemical substance/,"yeast gene YMR102C, ratio to control without chemical substance, 2 h culture",1.0
same,The level of expressed mRNA in the presence of chemical substance/The level of expressed mRNA in the absence of chemical substance,yeast gene YMR104C,1.9
same,The level of expressed mRNA in the presence of chemical substance/,"yeast gene YMR107W, ratio to control without chemical substance, 2 h culture",5.0
same,The level of expressed mRNA in the presence of chemical substance/,"yeast gene YMR180C, ratio to control without chemical substance, 2 h culture",1.2
same,The level of expressed mRNA in the presence of chemical substance/,"yeast gene YMR184W, ratio to control without chemical substance, 2 h culture",1.3
same,The level of expressed mRNA in the presence of chemical substance/,"yeast gene YMR191W, ratio to control without chemical substance, 2 h culture",1.3
same,The level of expressed mRNA in the presence of chemical substance/The level of expressed mRNA in the absence of chemical substance,yeast gene YMR219W,0.7
same,The level of expressed mRNA in the presence of chemical substance/The level of expressed mRNA in the absence of chemical substance,yeast gene YMR226C,1.1
same,The level of expressed mRNA in the presence of chemical substance/in the absence of chemical substance,yeast gene YMR267W,0.8
same,The level of expressed mRNA in the presence of chemical substance/The level of expressed mRNA in the absence of chemical substance,yeast gene YMR275C,0.7
same,The level of expressed mRNA in the presence of chemical substance/The level of expressed mRNA in the absence of chemical substance,yeast gene YMR276W,0.6
same,The level of expressed mRNA in the presence of chemical substance/in the absence of chemical substance,yeast gene YMR278W,0.7
same,The level of expressed mRNA in the presence of chemical substance/in the absence of chemical substance,yeast gene YMR293C,0.9
same,The level of expressed mRNA in the presence of chemical substance/,"yeast gene YMR295C, ratio to control without chemical substance, 2 h culture",1.7
same,The level of expressed mRNA in the presence of chemical substance/,"yeast gene YMR316W, ratio to control without chemical substance, 2 h culture",3.2
same,The level of expressed mRNA in the presence of chemical substance/The level of expressed mRNA in the absence of chemical substance,yeast gene YNL006W,1.1
same,The level of expressed mRNA in the presence of chemical substance/The level of expressed mRNA in the absence of chemical substance,yeast gene YNL007C,0.7
same,The level of expressed mRNA in the presence of chemical substance/,"yeast gene YNL044W, ratio to control without chemical substance, 2 h culture",1.3
